These results are taken from paper PMC9363482, “The crystal structure of Cry78Aa from Bacillus thuringiensis provides insights into its insecticidal activity” (Communications Biology, 2022).

One series concerns the target T1, Cry78Aa (Cry78Aa1) (Bacillus thuringiensis, UniProt A0A3S6Q0Y2).
T1 construct: ITC section says only 'Cry78Aa protein'
The note with it: 20 mM Tris-HCl pH 8.0, 25 °C; one-site binding model; 50 mM sugar into 150 µM protein.

For series [1] the following is noted: other: SDS-PAGE under mild denaturing conditions.

T1 sequence (A0A3S6Q0Y2 1-359 limits assumed): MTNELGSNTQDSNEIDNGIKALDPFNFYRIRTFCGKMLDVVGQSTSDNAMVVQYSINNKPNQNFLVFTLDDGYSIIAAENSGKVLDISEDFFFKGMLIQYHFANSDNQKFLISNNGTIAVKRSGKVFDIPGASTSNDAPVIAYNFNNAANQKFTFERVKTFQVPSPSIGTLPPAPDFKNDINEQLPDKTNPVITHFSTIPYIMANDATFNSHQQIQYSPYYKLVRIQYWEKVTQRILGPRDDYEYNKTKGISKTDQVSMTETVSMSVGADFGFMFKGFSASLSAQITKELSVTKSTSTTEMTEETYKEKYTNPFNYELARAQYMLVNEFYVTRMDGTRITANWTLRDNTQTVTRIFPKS

As for `CC(=O)N[C@H]1C(O)O[C@H](CO)[C@H](O)[C@@H]1O` (stereo partly drawn) [GalNAc], at Cry78Aa (Cry78Aa1), the dissociation constant Kd (as a rule, the concentration at which binding is half-saturated) was roughly 9.8 mM. On the same count and under the same terms, for `OC[C@H]1O[C@@H](O[C@H]2[C@H](O)[C@@H](O)C(O)O[C@@H]2CO)[C@H](O)[C@@H](O)[C@H]1O` (stereo partly drawn) [lactose] the value was roughly 10.2 mM.

For the compound Cry78Aa_(155-359), the “percent of the sample as oligomers or aggregates in 0.1% SDS” value in series [1] is ~30% of the total sample loaded onto each lane.
